From PubChem BioAssay (NCI)
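GI50: concentration for 50% inhibition of growth. TGI denotes the concentration required for complete inhibition of growth.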

Columns and labels:
Test in all cases: NCI-60 cell line screen, 384-well format
BT-549 breast = system: BT-549 breast
MALME-3M melanoma = system: MALME-3M melanoma
HOP-92 NSCLC = system: HOP-92 NSCLC
SK-MEL-2 melanoma = system: SK-MEL-2 melanoma
HT29 colon = system: HT29 colon
SK-OV-3 ovarian = system: SK-OV-3 ovarian
HCT-15 colon = system: HCT-15 colon
ACHN renal = system: ACHN renal
UO-31 renal = system: UO-31 renal
A549 NSCLC = system: A549 NSCLC
DU-145 prostate = system: DU-145 prostate
SK-MEL-28 melanoma = system: SK-MEL-28 melanoma
NCI-H226 lung = system: NCI-H226 lung
U251 glioblastoma = system: U251 glioblastoma
MDA-MB-231 breast = system: MDA-MB-231 breast
SK-MEL-5 melanoma = system: SK-MEL-5 melanoma
OVCAR-8 ovarian = system: OVCAR-8 ovarian
COLO 205 colon = system: COLO 205 colon
HCT-116 colon = system: HCT-116 colon
SF-539 CNS = system: SF-539 CNS
CAKI-1 renal = system: CAKI-1 renal
TK-10 renal = system: TK-10 renal
UACC-257 melanoma = system: UACC-257 melanoma
PC-3 prostate = system: PC-3 prostate
HOP-62 NSCLC = system: HOP-62 NSCLC
SF-268 CNS = system: SF-268 CNS
RXF 393 renal = system: RXF 393 renal
HL-60(TB) leukemia = system: HL-60(TB) leukemia
IGROV1 ovarian = system: IGROV1 ovarian
OVCAR-4 ovarian = system: OVCAR-4 ovarian
CCRF-CEM leukemia = system: CCRF-CEM leukemia
NCI-H460 NSCLC = system: NCI-H460 NSCLC
NCI-H322M lung = system: NCI-H322M lung
A498 renal = system: A498 renal
MDA-MB-435 melanoma = system: MDA-MB-435 melanoma
HCC-2998 colon = system: HCC-2998 colon
MDA-MB-468 breast = system: MDA-MB-468 breast
MCF7 breast = system: MCF7 breast
LOX IMVI melanoma = system: LOX IMVI melanoma
SNB-19 CNS = system: SNB-19 CNS
NCI/ADR-RES ovarian = system: NCI/ADR-RES ovarian
K-562 leukemia = system: K-562 leukemia
UACC-62 melanoma = system: UACC-62 melanoma
M14 melanoma = system: M14 melanoma
SN12C renal = system: SN12C renal
SW-620 colon = system: SW-620 colon
NCI-H522 lung = system: NCI-H522 lung
786-0 renal = system: 786-0 renal
MOLT-4 leukemia = system: MOLT-4 leukemia
SR leukemia = system: SR leukemia
KM12 colon = system: KM12 colon
RPMI-8226 leukemia = system: RPMI-8226 leukemia
OVCAR-5 ovarian = system: OVCAR-5 ovarian

Cc1c(F)c(N)c2c(=O)cc(-c3ccc(NC(=O)[C@@H](N)CCCCN)c(F)c3)oc2c1F
GI50 (BT-549 breast): 5.47 µM | TGI (BT-549 breast): 17.9 µM | GI50 (MALME-3M melanoma): 4.61 µM | TGI (MALME-3M melanoma): 12.1 µM | GI50 (HOP-92 NSCLC): 4.95 µM | TGI (HOP-92 NSCLC): 15.7 µM | GI50 (SK-MEL-2 melanoma): 2.98 µM | TGI (SK-MEL-2 melanoma): 11.9 µM | GI50 (HT29 colon): 13.2 µM | TGI (HT29 colon): 26 µM | GI50 (SK-OV-3 ovarian): 3.17 µM | TGI (SK-OV-3 ovarian): 12 µM | GI50 (HCT-15 colon): 8.41 µM | TGI (HCT-15 colon): 20.6 µM | GI50 (ACHN renal): 11.2 µM | TGI (ACHN renal): 23.3 µM | GI50 (UO-31 renal): 11.1 µM | TGI (UO-31 renal): 23.1 µM | GI50 (A549 NSCLC): 1.72 µM | TGI (A549 NSCLC): 17.1 µM | GI50 (DU-145 prostate): 12.5 µM | TGI (DU-145 prostate): 25 µM | GI50 (SK-MEL-28 melanoma): 13.4 µM | TGI (SK-MEL-28 melanoma): 26.2 µM | GI50 (NCI-H226 lung): 0.0195 µM | TGI (NCI-H226 lung): 0.128 µM | GI50 (U251 glioblastoma): 1.26 µM | TGI (U251 glioblastoma): 2.6 µM | GI50 (MDA-MB-231 breast): 5.54 µM | TGI (MDA-MB-231 breast): 17.4 µM | GI50 (SK-MEL-5 melanoma): 0.378 µM | TGI (SK-MEL-5 melanoma): 12.4 µM | GI50 (OVCAR-8 ovarian): 6.35 µM | TGI (OVCAR-8 ovarian): 19.5 µM | GI50 (COLO 205 colon): 6.39 µM | TGI (COLO 205 colon): 18 µM | GI50 (HCT-116 colon): 1.01 µM | TGI (HCT-116 colon): 2.57 µM | GI50 (SF-539 CNS): 2.27 µM | TGI (SF-539 CNS): 4.54 µM | GI50 (CAKI-1 renal): 1.52 µM | TGI (CAKI-1 renal): 19.5 µM | GI50 (TK-10 renal): 0.13 µM | TGI (TK-10 renal): 12.6 µM | GI50 (UACC-257 melanoma): 0.285 µM | TGI (UACC-257 melanoma): 0.884 µM | GI50 (PC-3 prostate): 13.3 µM | TGI (PC-3 prostate): 26.1 µM | GI50 (HOP-62 NSCLC): 9.12 µM | TGI (HOP-62 NSCLC): 21.5 µM | GI50 (SF-268 CNS): 6.37 µM | TGI (SF-268 CNS): 18.9 µM | GI50 (RXF 393 renal): 8.49 µM | TGI (RXF 393 renal): 20.7 µM | GI50 (HL-60(TB) leukemia): 0.878 µM | TGI (HL-60(TB) leukemia): 15.4 µM | GI50 (IGROV1 ovarian): 0.0154 µM | TGI (IGROV1 ovarian): 0.0561 µM | GI50 (OVCAR-4 ovarian): 8.64 µM | TGI (OVCAR-4 ovarian): 21 µM | GI50 (CCRF-CEM leukemia): 1.6 µM | TGI (CCRF-CEM leukemia): 3.08 µM | GI50 (NCI-H460 NSCLC): 0.37 µM | TGI (NCI-H460 NSCLC): 2.03 µM | GI50 (NCI-H322M lung): 9.87 µM | TGI (NCI-H322M lung): 21.5 µM | GI50 (A498 renal): 0.0368 µM | TGI (A498 renal): 0.182 µM | GI50 (MDA-MB-435 melanoma): 3.27 µM | TGI (MDA-MB-435 melanoma): 8.1 µM | GI50 (HCC-2998 colon): 11.7 µM | TGI (HCC-2998 colon): 24 µM | TGI (MDA-MB-468 breast): 0.0175 µM | GI50 (MCF7 breast): 0.0266 µM | TGI (MCF7 breast): 0.146 µM | GI50 (LOX IMVI melanoma): 10.2 µM | TGI (LOX IMVI melanoma): 21.9 µM | GI50 (SNB-19 CNS): 11.3 µM | TGI (SNB-19 CNS): 23.4 µM | GI50 (NCI/ADR-RES ovarian): 12.7 µM | TGI (NCI/ADR-RES ovarian): 25.3 µM | GI50 (K-562 leukemia): 1.09 µM | TGI (K-562 leukemia): 2.85 µM | GI50 (UACC-62 melanoma): 0.618 µM | TGI (UACC-62 melanoma): 16 µM | GI50 (M14 melanoma): 2.86 µM | TGI (M14 melanoma): 6.82 µM | GI50 (SN12C renal): 10.3 µM | TGI (SN12C renal): 22 µM | GI50 (SW-620 colon): 2.56 µM | TGI (SW-620 colon): 11.5 µM | GI50 (NCI-H522 lung): 4.75 µM | TGI (NCI-H522 lung): 18.6 µM | GI50 ([…]-0 renal): 9.12 µM | TGI (786-0 renal): 21.3 µM | GI50 (MOLT-4 leukemia): 1.57 µM | TGI (MOLT-4 leukemia): 2.91 µM | GI50 (SR leukemia): 1.52 µM | TGI (SR leukemia): 2.89 µM | GI50 (KM12 colon): 2.31 µM | TGI (KM12 colon): 5.46 µM | GI50 (RPMI-8226 leukemia): 0.804 µM | TGI (RPMI-8226 leukemia): 3.31 µM | GI50 (OVCAR-5 ovarian): 0.046 µM | TGI (OVCAR-5 ovarian): 12 µM
